ChEMBL document CHEMBL1158371, “Design, synthesis, and evaluation of biphenyl-4-yl-acrylohydroxamic acid derivatives as histone deacetylase (HDAC) inhibitors” (Eur J Med Chem, 2009)
The source made the active and inactive calls. The calls are words filed in the database; no cut-off is given here.

Columns and labels:
[1] = test system: HCT-116; experiment: Antiproliferative activity against human HCT116 cells after 72 hrs; assay type: functional, cell-based; conditions: HCT-116, 72 h
[2] = test system: IGROV-1; experiment: Antiproliferative activity against human IGROV1 cells after 72 hrs; assay type: functional, cell-based; conditions: IGROV-1, 72 h
[3] = test system: IGROV-1; experiment: Antiproliferative activity against cisplatin-resistant human IGROV1 cells after 72 hrs; assay type: functional, cell-based; conditions: IGROV-1, 72 h
[4] = test system: NB-4; experiment: Antiproliferative activity against human NB4 cells after 72 hrs; assay type: functional, cell-based; conditions: NB-4, 72 h
[5] = target: Histone deacetylase 2 (Homo sapiens, UniProt Q92769); experiment: Inhibition of HDAC2 in human HeLa cells; assay type: cell-based
[6] = test system: NCI-H460; experiment: Antiproliferative activity against human H460 cells after 72 hrs; assay type: functional, cell-based; conditions: NCI-H460, 72 h
[7] = test system: IGROV-1; experiment: Cell cycle arrest in human IGROV1 cells assessed as accumulation at sub-G1 phase at IC80 after 24 hrs using propidium-iodide staining by flow-cytometry; assay type: functional, cell-based
[8] = test system: IGROV-1; experiment: Cell cycle arrest in cisplatin-resistant human IGROV1 cells assessed as partial accumulation at S phase at IC80 using propidium-iodide staining by flow-cytometry; assay type: functional, cell-based
[9] = test system: IGROV-1; experiment: Cell cycle arrest in cisplatin-resistant human IGROV1 cells assessed as partial accumulation at G2/M phase at IC80 using propidium-iodide staining by flow-cytometry; assay type: functional, cell-based
[10] = test system: IGROV-1; experiment: Induction of apoptosis in human IGROV1 cells at IC80 after 72 hrs by TUNEL assay; assay type: functional
[11] = test system: IGROV-1; experiment: Antiproliferative activity against human IGROV1 cells after 72 hrs by cell counting; conditions: IGROV-1, 72 h
[12] = test system: Mus musculus; experiment: Toxicity in athymic nude Swiss mouse bearing human IGROV1 cells assessed as body weight loss at 40 mg/kg, po QD administered 5 days a week for 4 weeks; assay type: organism-based, IGROV-1; design: dose 40 mg/kg, route oral; conditions: in vivo
[13] = test system: HCT-116; experiment: Antitumor activity against human HCT116 cells athymic nude Swiss mouse assessed as tumor volume inhibition at 40 mg/kg, po QD administered 5 days a week for 4 weeks; assay type: functional
[14] = test system: IGROV-1; experiment: Antitumor activity against human IGROV1 cells athymic nude Swiss mouse assessed as tumor volume inhibition at 20 mg/kg, po QD administered 5 days a week for 4 weeks; assay type: functional
[15] = test system: IGROV-1; experiment: Antitumor activity against human IGROV1 cells athymic nude Swiss mouse assessed as tumor volume inhibition at 40 mg/kg, po QD administered 5 days a week for 4 weeks; assay type: functional
[16] = test system: Mus musculus; experiment: Toxicity in athymic nude Swiss mouse bearing human HCT116 cells assessed as body weight loss at 40 mg/kg, po QD administered 5 days a week for 4 weeks; assay type: organism-based, HCT-116; design: dose 40 mg/kg, route oral; conditions: in vivo
[17] = test system: Mus musculus; experiment: Toxicity in athymic nude Swiss mouse bearing human IGROV1 cells assessed as body weight loss at 20 mg/kg, po QD administered 5 days a week for 4 weeks; assay type: organism-based, IGROV-1; design: dose 20 mg/kg, route oral; conditions: in vivo
[18] = test system: IGROV-1; experiment: Induction of apoptosis in human IGROV1 cells at IC90 after 72 hrs by TUNEL assay; assay type: functional
[19] = test system: IGROV-1; experiment: Cell cycle arrest in human IGROV1 cells assessed as accumulation at sub-G1 phase at IC90 after 24 hrs using propidium-iodide staining by flow-cytometry; assay type: functional, cell-based
[20] = test system: IGROV-1; experiment: Cell cycle arrest in cisplatin-resistant human IGROV1 cells assessed as partial accumulation at S phase at IC90 using propidium-iodide staining by flow-cytometry; assay type: functional, cell-based
[21] = test system: IGROV-1; experiment: Cell cycle arrest in cisplatin-resistant human IGROV1 cells assessed as partial accumulation at G2/M phase at IC90 using propidium-iodide staining by flow-cytometry; assay type: functional, cell-based
[22] = test system: Mus musculus; experiment: Toxicity in athymic nude Swiss mouse bearing human HCT116 cells assessed as body weight loss at 100 mg/kg, po QD administered 5 days a week for 4 weeks; assay type: organism-based, HCT-116; design: dose 100 mg/kg, route oral; conditions: in vivo
[23] = test system: NCI-H460; experiment: animal or person; assay type: functional, Homo sapiens; conditions: Mus musculus, route oral
Description: Antitumor activity against human H460 cells athymic nude Swiss mouse assessed as tumor volume inhibition at 100 mg/kg, po QD administered 5 days a week for 2 weeks

[24] = test system: NCI-H460; experiment: Antitumor activity against human H460 cells athymic nude Swiss mouse assessed as tumor volume inhibition at 100 mg/kg, ip QD administered 5 days a week for 2 weeks; assay type: functional; conditions: route intraperitoneal
[25] = test system: HCT-116; experiment: Antitumor activity against human HCT116 cells athymic nude Swiss mouse assessed as tumor volume inhibition at 20 mg/kg, po QD administered 5 days a week for 4 weeks; assay type: functional
[26] = test system: HCT-116; experiment: Antitumor activity against human HCT116 cells athymic nude Swiss mouse assessed as tumor volume inhibition at 20 mg/kg, ip QD administered 5 days a week for 4 weeks; assay type: functional; conditions: HCT-116, ip, route intraperitoneal
[27] = test system: Mus musculus; experiment: Toxicity in athymic nude Swiss mouse bearing human H460 cells assessed as body weight loss at 100 mg/kg, ip QD administered 5 days a week for 2 weeks; assay type: organism-based; design: dose 100 mg/kg, route intraperitoneal; conditions: in vivo
[28] = test system: Mus musculus; experiment: Toxicity in athymic nude Swiss mouse bearing human HCT116 cells assessed as body weight loss at 20 mg/kg, po QD administered 5 days a week for 4 weeks; assay type: organism-based, HCT-116; design: dose 20 mg/kg, route oral; conditions: in vivo
[29] = test system: Mus musculus; experiment: Toxicity in athymic nude Swiss mouse bearing human HCT116 cells assessed as body weight loss at 20 mg/kg, ip QD administered 5 days a week for 4 weeks; assay type: organism-based, HCT-116; design: dose 20 mg/kg, route intraperitoneal; conditions: in vivo

Chain of Histone deacetylase 2 (Q92769 whole entry): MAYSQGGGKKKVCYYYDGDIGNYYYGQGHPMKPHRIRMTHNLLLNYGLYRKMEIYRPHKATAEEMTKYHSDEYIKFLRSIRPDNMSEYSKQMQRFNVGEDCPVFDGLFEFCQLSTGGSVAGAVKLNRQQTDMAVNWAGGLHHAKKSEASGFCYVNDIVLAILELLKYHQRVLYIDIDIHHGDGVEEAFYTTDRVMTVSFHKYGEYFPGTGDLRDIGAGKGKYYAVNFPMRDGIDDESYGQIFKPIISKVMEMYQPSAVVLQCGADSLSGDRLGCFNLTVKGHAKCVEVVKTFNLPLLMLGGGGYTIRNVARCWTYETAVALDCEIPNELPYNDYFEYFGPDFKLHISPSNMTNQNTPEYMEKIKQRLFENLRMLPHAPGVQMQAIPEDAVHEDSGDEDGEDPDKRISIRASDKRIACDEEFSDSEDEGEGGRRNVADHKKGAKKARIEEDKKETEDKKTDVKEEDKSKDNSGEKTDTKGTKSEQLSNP

IC50 [1] [µM]	IC50 [5] [µM]	IC50 [6] [µM]	Compound	IC50 [2] [µM]	IC50 [3] [µM]	IC50 [4] [µM]	Activity [7]	Activity [8]	Activity [9]	Activity [10] [%]	IC80 [11] [µM]	also measured
3.9			O=C(/C=C/Oc1ccc(-c2ccccc2)cc1)NO	5.4	5.9							
	1.2	14	O=C(/C=C/c1ccc(-c2ccc3[nH]ccc3c2)cc1)NO	22.1	29.3	6.5						
1.58	0.82	5.4	O=C(/C=C/c1ccc(-c2ccccc2)cc1)NO	3.5	4	0.9						
1.64	0.32	5.6	O=C(/C=C/c1cccc(-c2ccc(O)cc2)c1)NO	> 10	> 10	2.85						
1.46	0.46	3.1	O=C(/C=C/c1ccc(-c2ccc(O)c(Cl)c2)cc1)NO	4.1	3.9	0.58	Active	Active	Active			
0.7	> 5		CN(C)c1ccc(-c2ccc(/C=C/C(=O)NO)cc2)cc1	1.1	3.5	0.86	Active	Active	Active	89	3	
	> 5		O=C(/C=C/c1ccc(-c2ccncc2)cc1)NO			3.29						
0.8	0.22	3.8	O=C(/C=C/c1ccc(-c2ccc(CO)cc2)cc1)NO	8	5.5	1.81	Active	Active	Active	90	15	
	> 5	> 20	COc1ccc(-c2ccc(/C=C/C=C/C(=O)NO)cc2)cc1	0.57	2.01					90	10	
0.33		6	O=C(/C=C/c1ccc(-c2ccc(O)cc2)cc1)NO	7.6	6.5	2.3				40	20	Activity [12]: 6%; inhibition in vivo at 40 mg/kg [13]: 65%; inhibition in vivo at 20 mg/kg [14]: 44%; inhibition in vivo at 40 mg/kg [15]: 49%; Activity [16]: 8%; Activity [17]: 2%
2.7	0.72	4.7	O=C(CCCCc1ccc(-c2ccccc2)cc1)NO	8	9.1	0.86	Active	Active	Active	65	12	
0.31			O=C(CCCCCCC(=O)Nc1ccccc1)NO [VORINOSTAT]	2.2	2.2		Active	Active	Active	15		Activity [18]: 45%; Activity [19]: Active; Activity [20]: Active; Activity [21]: Active; Activity [22]: 4%
	0.33	5.7	N#Cc1ccc(-c2ccc(/C=C/C(=O)NO)cc2)cc1	2.7	3.2		Active	Active	Active	90	10	inhibition in vivo at 20 mg/kg [14]: 37%; Activity [17]: 0%
0.22	1.16	3.7	COc1ccc(-c2ccc(/C=C/C(=O)NO)cc2)cc1	0.75	2.3		Active	Active	Active	52	3	inhibition in vivo at 100 mg/kg [23]: 57%; inhibition in vivo at 100 mg/kg [24]: 39%; inhibition in vivo at 20 mg/kg [25]: 35%; inhibition in vivo at 20 mg/kg [26]: 50%; inhibition in vivo at 20 mg/kg [14]: 71%; Activity [27]: 4%; Activity [28]: 1%; Activity [29]: 2%; Activity [17]: 0%
	1.2	3.3	N#Cc1ccc(-c2ccc(/C=C/C=C/C(=O)NO)cc2)cc1	1.05	3.1							
4.27		9.5	O=C(CCC1CCC(c2ccc(O)cc2)CC1)NO (configuration not stated)	31.9	23.9	6.9						
0.26	1.7	15.2	O=C(CCc1ccc(-c2ccc(O)cc2)cc1)NO	0.8	0.95	3.9	Active	Active	Active	45	10	
			O=Cc1ccc(-c2ccc(/C=C/C(=O)NO)cc2)cc1	12.1	20.3							
0.98	> 5	1.9	O=C(/C=C/C=C/c1ccc(-c2ccccc2)cc1)NO	1.4	2.4	0.66	Active	Active	Active	89	3	
0.51	1.86		O=C(/C=C/c1ccc(-c2ccc(Cl)cc2)cc1)NO	0.61	1.36	0.76	Active	Active	Active	77	2	

Compound	IC50 [1] [µM]	IC50 [5] [µM]	IC50 [6] [µM]	IC50 [2] [µM]	IC50 [3] [µM]	IC50 [4] [µM]	Activity [7]	Activity [8]	Activity [9]	Activity [10] [%]	IC80 [11] [µM]	also measured
O=C(/C=C/c1ccc(-c2cccs2)cc1)NO		0.45	2.8	2.8	3.2		Active	Active	Active	90	7	
O=C(/C=C/C1CCC(c2ccc(O)cc2)CC1)NO (configuration not stated)	0.37	0.31	2.2	2.5	2.6	0.9						
